According to patent US12447170B2, “Use of maribavir in treatment regimens” (priority 2021, dated 2025):

Tests used:
[1] = PBPK simulation of maribavir with rifampicin; design: species or system human
Experimental: A comparison of observed and predicted plasma concentrations of maribavir following multiple oral doses of 400 mg administered in the absence of rifampicin and during concurrent treatment with rifampicin was performed. Subjects took maribavir 400 mg BID on Days 1-3 (5 doses), then rifampicin 600 mg QD on Days 4 through 12, followed by both maribavir 400 mg (BID) and rifampicin 600 mg QD on Days 13 and 14, with final doses of maribavir and rifampicin on the morning of Day 15. […]

[2] = Observed clinical interaction of maribavir with ketoconazole in healthy subjects; format: in vivo, human; conditions: for AUC(0-inf) / Cmax: human, in vivo, 400 mg
Experimental: A comparison of observed and predicted plasma concentrations of maribavir following a single oral dose of 400 mg administered in the absence of ketoconazole (a CYP3A4 inhibitor) and 1 hour after a single 400 mg dose of ketoconazole to healthy subjects was performed.

clinical [3] = conditions: human, in vivo; for AUC(0-t): AUC(0-12 h)
Experimental: A combination of in vitro data and clinical pharmacokinetic data obtained following a single dose of 400 mg maribavir were used to develop the PBPK model. […] The Cmax was marginally under predicted, which could be expected because the PBPK model was optimized for better prediction of C12h.
A comparison of observed and predicted plasma concentrations of maribavir following single oral doses of 800 mg and 1600 mg to healthy patients […]. […] The simulated and observed maribavir concentrations were in reasonable agreement.
A comparison of observed and predicted plasma concentrations of maribavir following multiple oral 400 mg BID doses of maribavir was performed. […] The simulated and observed maribavir concentrations were in reasonable agreement.

[4] = Phase 2 studies for treatment of CMV infection/diseases: safety/tolerability; format: in vivo, human; conditions: doses up to 1200 mg BID
clinical [5] = conditions: human, in vivo
CYP1A2 mRNA = format: in vitro ADME; conditions: human, hepatocytes, 72 h
Experimental: (§1) Fresh human hepatocytes were treated with culture medium with maribavir concentrations of 36 μM, 144 μM, and 480 μM. […] Incubation was conducted at 37° C. for 72 hours, with daily replacement of medium with compound. […] Analysis of CYP expression was performed using qPCR with CYP-specific probes.

CYP2B6 mRNA = format: in vitro ADME; conditions: human, hepatocytes, 72 h
Experimental: as §1

[6] = maribavir 400 mg BID + rifampicin 600 mg QD
[7] = maribavir 400 mg BID with/without rifampicin 600 mg QD
[8] = 400 mg, observed Geometric mean

## CC(C)Nc1nc2cc(Cl)c(Cl)cc2n1[C@H]1O[C@@H](CO)[C@H](O)[C@@H]1O [maribavir, (2S,3S,4R,5S)-2-(5,6-dichloro-2-(isopropylamino)-1H-benzo[d]imidazol-1-yl)-5-(hydroxymethyl)tetrahydrofuran-3,4-diol]
[1]; [6]
  AUC(0-12 h), RATIO GEOMETRIC MEAN PREDICTED/OBSERVED: 0.88
  AUC(0-12 h), RATIO MEAN PREDICTED/OBSERVED: 1.00
  C12 h, RATIO GEOMETRIC MEAN PREDICTED/OBSERVED: 0.22
  C12 h, RATIO MEAN PREDICTED/OBSERVED: 0.83
  Cmax, RATIO GEOMETRIC MEAN PREDICTED/OBSERVED: 0.75
  Cmax, RATIO MEAN PREDICTED/OBSERVED: 0.78
[1]; [7]
  Ratio AUC(0-12 h), RATIO GEOMETRIC MEAN PREDICTED/OBSERVED: 0.85
  Ratio AUC(0-12 h), RATIO MEAN PREDICTED/OBSERVED: 0.91
  Ratio C12 h, RATIO GEOMETRIC MEAN PREDICTED/OBSERVED: 0.24
  Ratio C12 h, RATIO MEAN PREDICTED/OBSERVED: 0.56
  Ratio Cmax, RATIO GEOMETRIC MEAN PREDICTED/OBSERVED: 0.89
  Ratio Cmax, RATIO MEAN PREDICTED/OBSERVED: 0.87
[2]; observed Geometric mean
  AUC(0-inf): 183 µg·h/mL
  Cmax: 21300 ng/mL
[2]; observed Mean
  AUC(0-inf): 194 µg·h/mL
  Cmax: 21800 ng/mL
[2]; with/without ketoconazole
  Ratio AUC(0-∞), observed Geometric mean: 1.53
  Ratio AUC(0-∞), observed Mean: 1.55
  Ratio Cmax, observed Geometric mean: 1.10
  Ratio Cmax, observed Mean: 1.12
Clinical [3]; 400 mg
  AUC(0-∞), observed Mean: 126 µg·h/mL
Clinical [3]; 400 mg, observed
  AUC(0-t): 86.6 µg·h/mL
Clinical [3]; 400 mg, observed Mean
  AUC(0-t): 89.9 µg·h/mL
  AUC(0-inf): 89.9 µg·h/mL
  Cmax: 16900 ng/mL
Clinical [3]; [8]
  AUC(0-inf): 119 µg·h/mL
  Cmax: 19400 ng/mL
Clinical [3]; 400 mg, observed, row headed % CV
  Cmax: 16200 ng/mL
Clinical [3]; po, 400 mg, observed Mean
  AUC(0-inf): 97.8 µg·h/mL
  Cmax: 16700 ng/mL
Clinical [3]; po, 800 mg, observed Mean
  AUC(0-inf): 183 µg·h/mL
  Cmax: 26400 ng/mL
Clinical [3]; po, 1600 mg, observed Mean
  AUC(0-inf): 437 µg·h/mL
  Cmax: 48800 ng/mL
[4]
  safety/tolerability profile: no limiting toxicity
Clinical [5]
  half-life: 5 to 7 h
Clinical [5]; po
  CL renal: 0.85 mL/min
  effect of crushing the tablet or antacids on bioavailability: wasn't affected
  effect of food on exposure: unaffected
  time to peak concentrations: 1 to 3 h
CYP1A2 mRNA
  CYP1A2 mRNA induction, % of the levels of positive controls: ≤ 11%
CYP2B6 mRNA
  CYP2B6 mRNA induction, % of the levels of positive controls: ≤ 11%
